Each block holds one compound with its values, some of them ahead of it.
How the values were obtained:
primary microglia (pMG) [1] = test: Hypoxia-induced microglial activation (morphological changes) in primary microglia; assay type: cell-based, mouse; details: lonidamine 50 μM
Experimental: For the isolation and culture of primary microglia, cells were isolated from newborn C57BL/6J mice. Briefly, cerebral cortices devoid of meninges and blood vessels were dissociated from P0-2 mice and digested by 0.125% trypsin at 37° C. for 15 minutes. The digestion was terminated by addition of DMEM containing 10% FBS and isolated single cells were seeded in culture dishes. After the mixed cultures became confluent, microglia were separated from other cell types by slight shaking and purification was identified by the microglial-specific marker CD 11b.

BV 2 cells [2] = test: Metabolite profiling: acetyl-coenzyme A accumulation under hypoxia; assay type: cell-based, mouse; details: lonidamine 50 μM, BrPA 10 μM; hypoxia 6 hours
Experimental: c) Metabolite profiling: BV2 cells were seeded in a 60 mm culture dish and cultured for 24 hours and then cultured in normoxic or hypoxic conditions for 6 hours. Metabolites were extracted using 1.5 mL of ice-cold 80% methanol. After incubation at −80° C. for 30 minutes, cells were scrapped and centrifuged at 14,000 g for 15 min at 4° C. The upper methanol/water phase were transferred into new tubes and incubated at −80° C. for another 30 minutes. The upper phases were centrifuged and dried under nitrogen gas and dried samples were stored at −80° C. prior to LC-MS analysis.

primary microglia (pMG) [3] = test: CD 11b expression in hypoxia-stimulated primary microglia; assay type: cell-based, mouse; details: lonidamine 50 μM, DMSO as solvent
Experimental: For the isolation and culture of primary microglia, cells were isolated from newborn C57BL/6J mice. Briefly, cerebral cortices devoid of meninges and blood vessels were dissociated from P0-2 mice and digested by 0.125% trypsin at 37° C. for 15 minutes. The digestion was terminated by addition of DMEM containing 10% FBS and isolated single cells were seeded in culture dishes. After the mixed cultures became confluent, microglia were separated from other cell types by slight shaking and purification was identified by the microglial-specific marker CD 11b. b) CD 11b expression detected by Immunofluorescence: BV2 cells were seeded in a laser confocal-specific culture plate, and treated with hypoxia for 24 hours, fixed in 4% paraformaldehyde at room temperature for 20 minutes, and then washed three times with PBST for 5 minutes each time. After washing, CD 11b antibody diluted with DAKO antibody dilution was added and incubated overnight at 4° C. The next day, the samples were incubated with indicated fluorescently labeled secondary antibody at 37° C. for 1 hour.

BV 2 cells [4] = test: qRT-PCR of proinflammatory cytokine mRNA under hypoxia; assay type: cell-based, mouse; details: lonidamine 50 μM, 3-BrPA 10 μM; for 116 expression (mRNA) / Tnfa expression (mRNA): hypoxia
Experimental: Next, quantitative reverse transcription polymerase chain reaction assays were performed to examine the mRNA levels of several proinflammatory cytokines in the presence or absence of HK2 inhibitors. […] Chromatin immunoprecipitation assays were carried out to examine endogenous binding of acetylated histones to I11b promoter. The binding of AcH3 and AcH4 to the I11b promoter increased during hypoxia, whereas it could be decreased by pretreatment with lonidamine (FIG. 7F).

[5] = tested on: middle cerebral artery occlusion (MCAo) rats; test: Rat MCAo model, infarct volume by TTC staining; assay type: in vivo; details: 10 mg/kg two hours after operation; measured 24 hours after reperfusion
BV2 microglia cells [6] = test: Hypoxia-induced microglial activation (morphological changes) in BV2 cells; assay type: cell-based, mouse
Experimental: a) Cell culture: BV2 cells were grown in DMEM containing 10% fetal bovine serum (FBS), placed in 5% CO2, cultured in a 37° C. constant temperature incubator (relative humidity was 95%), and observed under inverted microscope. Passage was performed approximately 2-3 days, and logarithmic growth phase cells were used for formal experiments. The cells in the hypoxic treatment group were placed in the Coy anoxic chamber with 1% 02, 5% CO2, and 94% N2; other conditions were the same as normal culture conditions.
(§1) b) RNA interference: Cells were seeded in a 35 mm culture dish for 24 hours. Short-interfering RNAs (siRNAs) were transfected with RNAiMAX Reagent. Scrambled RNA was used as a control. In total, 50 nM siRNAs were transfected into the cultures, and after 12 hours, the medium was replaced with fresh medium. Cells were then stimulated with hypoxia for 24 hours to detect the expression level of the indicated proteins.
a) Cell culture: BV2 cells were grown in DMEM containing 10% fetal bovine serum (FBS), placed in 5% CO2, cultured in a 37° C. constant temperature incubator (relative humidity was 95%), and observed under inverted microscope. Passage was performed approximately 2-3 days, and logarithmic growth phase cells were used for formal experiments.

I11b promoter = test: Chromatin immunoprecipitation (ChIP): acetylated histones at I11b promoter; assay type: cell-based, mouse; details: pretreatment 1 hour prior to 6 hours hypoxic exposure
Experimental: d) Chromatin immunoprecipitation (ChIP) assay: BV 2 cells were treated with dimethylsulfoxide or lonidamine for 1 hour prior to 6 hours hypoxic exposure. Then, cells were cross-linked with a 1% formaldehyde solution (Sigma, F8775) for 10 minutes at 37° C. Cell lysates were sonicated to generate 100-1000 bp DNA fragments. Samples were diluted, and 10% of the total amount was retained for input. The remaining portions of each sample were pre-cleared, and anti-H3 or anti-H4 antibodies were added; a normal rabbit IgG antibody was simultaneously used as the negative control. The next day, protein G agarose was added and samples were washed after 2 hours of incubation. Cross-links were then reversed by incubation at 65° C. for 4 hours in 0.2 M NaCl. DNAs were extracted from the input and IP samples, and qPCR assays were performed. The […] promoter primer sequences were as follows: [NT] (forward) (SEQ ID NO. 19) and [NT] (reverse) (SEQ ID NO. 20).

BV2 microglia cells [7] = test: CD 11b expression in hypoxia-stimulated BV2 cells; assay type: cell-based, mouse; details: lonidamine 50 μM, DMSO as solvent
Experimental: (§2) c) CD 11b expression detected by Immunofluorescence: BV2 cells were seeded in a laser confocal-specific culture plate, and treated with hypoxia for 24 hours, fixed in 4% paraformaldehyde at room temperature for 20 minutes, and then washed three times with PBST for 5 minutes each time. After washing, CD 11b antibody diluted with DAKO antibody dilution was added and incubated overnight at 4° C. The next day, the samples were incubated with indicated fluorescently labeled secondary antibody at 37° C. for 1 hour.
as §1
as §2, with “b)” for “c)”, “The next day, the samples were incubated with indicated fluorescently labeled secondary antibody at 37° C. for 1 hour.” left out

BV2 microglia cells [8] = test: Proinflammatory cytokine protein expression under hypoxia; assay type: cell-based, mouse; details: 2-DG, BV 2 cells under hypoxia
Experimental: b) Protein extraction and proinflammatory cytokine protein expression assay: After incubated in 35 mm culture dishes and placed for 24 hours, the cells were subject to hypoxia treatment for indicated time. The total cellular protein was then extracted to detect protein expression of the proinflammatory cytokines TNF-α, IL-1β and IL-6.

binding of AcH3 to the I11b promoter during hypoxia (I11b promoter): decreased
binding of AcH4 to the I11b promoter during hypoxia (I11b promoter): decreased
SMILES: O=C(O)c1nn(Cc2ccc(Cl)cc2Cl)c2ccccc12 [Lonidamine]
activated state of pMG cultures during hypoxia (primary microglia (pMG) [1]): markedly inhibited
hypoxia-induced accumulation of acetyl-coenzyme A (BV 2 cells [2]): remarkably impaired
CD 11b expression, pMG cells (immunofluorescence) (primary microglia (pMG) [3]): reduction
hypoxia-induced I11b expression at the mRNA level (BV 2 cells [4]): dramatically inhibited
116 expression (mRNA) (BV 2 cells [4]): no effect
Tnfa expression (mRNA) (BV 2 cells [4]): no effect
infarct size [5]: significantly reduced
activated state of BV 2 cultures during hypoxia (BV2 microglia cells [6]; lonidamine 50 μM): markedly inhibited
CD 11b expression, BV 2 cells (immunofluorescence) (BV2 microglia cells [7]): reduction

SMILES: O=C(O)C(=O)CBr [3-Br-pyruvate, 3-bromopyruvate]
hypoxia-induced accumulation of acetyl-coenzyme A (BV 2 cells [2]): remarkably impaired
hypoxia-induced I11b expression at the mRNA level (BV 2 cells [4]): dramatically inhibited
116 expression (mRNA) (BV 2 cells [4]): no effect
Tnfa expression (mRNA) (BV 2 cells [4]): no effect

SMILES: O=CC[C@@H](O)[C@H](O)[C@H](O)CO [2-deoxyglucose, 2-deoxy-D-glucose]
production of proinflammation cytokines (BV2 microglia cells [8]): significantly impaired
percentage of BV 2 cells with activated morphological changes (BV2 microglia cells [6]; 500 μM 2-DG, hypoxia 1% oxygen): significantly decreased

Source: patent US12319750B2, “Hexokinase 2-specific inhibitors for use in acute central nervous system injury” (GUANGZHOU CELLPROTEK PHARMACEUTICAL CO., LTD, priority 2017, dated 2025)
